Legend:
[1] = tested on: Staphylococcus haemolyticus cells; experiment: Sniff assay: malodor inhibition and fragrance production with axillary malodor precursors; format: cell-based; conditions: 0.1% compound with malodor precursors and cells at 37° C., seven judges, 8-point scale
Description: The serine carbonate 2-Amino-3-(1,5,7-trimethyl-octyl-oxycarbonyloxy)-propionic acid has been tested in a sniff assay to determine whether, in the presence of Staphylococcus haemolyticus and axillary malodor precursors, production of malodor is inhibited and production of fragrance can be detected. For this assay, axillary washes, which contain malodor precursors, were dried into vials at a concentration sufficient to produce a strong axillary malodor when incubated with Staphylococcus haemolyticus cells. Vials were incubated at 37° C. with Staphylococcus haemolyticus cells. The vials contained […] with 0.1% 2-amino-3-(1,5,7-trimethyl-octyl-oxycarbonyloxy)-propionic acid. Control precursor vials were not incubated with the cells. The mixtures were extracted with chloroform and about 10 μl of the chloroform layers were spotted on bibulous paper. After the chloroform had evaporated, the papers were evaluated for malodor level and fragrance level. Evaluations were done by seven judges who rated malodor or fragrance strength on an 8-point scale from 0 (none) to 7 (extremely strong). Results were calculated as percent change from control malodor or precursor fragrance score.

[2] = tested on: Staphylococcus haemolyticus cells; experiment: Gas chromatography assay of cleavage of serine carbonates by axilla bacteria; format: cell-based; conditions: 350 nmol of compound, 16-18 hours at 37° C.
Description: This example is meant to illustrate, not to limit, the invention.
The synthesized amino acid derivatives were tested for their ability to be cleaved by bacteria normally found in human axilla. A 100 ml culture of Staphylococcus haemolyticus was grown overnight at 37° C. in TSB medium.
The cells were pelleted by centrifuging the culture at 5,000 rpm for 12 minutes, and the pelleted cells were resuspended in sterile saline. The cells were again pelleted and resuspended in sterile saline. After pelleting the cells once again, the cells were weighed and resuspended in sterile assay buffer (50 mM phosphate, pH 6.8, 1% glucose/dextran). The final concentration of cells was 0.05 g cells/ml (for the gas chromatography (GC) assay). These cell suspensions can be stored at 4° C.
The serine carbonate was prepared as stock solution at a concentration of approximately 5 mg/ml in 50 mM potassium phosphate buffer (pH 6.8). If necessary, the pH can be adjusted to 6.8-7.0 with 1N NaOH. The serine carbonate stock solution was sterilized by filtering through 0.22 μm filters.
For a negative control, the cells were incubated with 100 μl sterile phosphate buffer. […] The samples then were extracted into 100 μl chloroform and analyzed by gas chromatography.

With CC(C)CCCC(C)C1CCC2C3CC=C4CC(OC(=O)OCC(N)C(=O)O)CCC4(C)C3CCC12C (centres unmarked) the melting point was 147 °C.

CC(C)CC(C)CCCC(C)OC(=O)OCC(N)C(=O)O (centres unmarked) [Example 3a, 2-Amino-3-(1,5,7-trimethyl-octyloxycarbonyloxy)-propionic acid] showed a Malodor drop ([1]; percent change from control malodor score) of 50% and a Fragrance increase ([1]; percent change from control precursor fragrance score) of 30%.

In the case of CC(CCOC(=O)OCC(N)C(=O)O)CCc1ccccc1 (centres unmarked) [Example 3e, 2-Amino-3-(3-methyl-5-phenyl-pentyloxycarbonyloxy)-propionic acid], the “precursor cleaved by the cells” value [2] is reported as 40% and the “3-methyl-5-phenyl-pentanol produced by the cell incubation” value ([2]; pH 6.8, GC analysis) is reported as 140 nmols.

Reference: patent publication US6569411B2, “Serine carbonates” (The Gillette Company, priority 1999, dated 2003)
